Patent US10766865B2, “PKM2 modulators and methods for their use” (TOLERO PHARMACEUTICALS, INC., priority 2012, dated 2020)
pEC50: −log10 of the molar value.

System: A549 cells
Assay: Cell Proliferation Assay, A549
Type: cell-based
Conditions: Homo sapiens; A549, BME media lacking nonessential amino acids, 72 hours, ATPlite; read-out: Percent viability (EC50), Average
Method: Cells were seeded at 5000 cells per well (in 96-well plate) in BME media lacking nonessential amino acids+5% dialyzed serum. After 18 hours, DMSO or compound in 0.1% final concentration DMSO was added.
Percent viability (EC50) of A549 and PC3 cells was tested against certain exemplary compounds according to the above general procedures.

pEC50: 7.15
SMILES: O=C(c1cc(C(F)(F)F)n[nH]1)N(Cc1ccc(O)cc1F)CC1CCC1 [Example 1, N-(cyclobutylmethyl)-N-(2-fluoro-4-hydroxybenzyl)-3-(trifluoromethyl)-1H-pyrazole-5-carboxamide]
